Test results reported in PMC7730851, “Expression of Somatostatin Receptor Subtypes (SSTR-1–SSTR-5) in Pediatric Hematological and Oncological Disorders” (Molecules, 2020).
“Also recorded” adds a separate entry of the source. Like-named read-outs stand apart in the source and are kept apart here. Blank lines part the entries; values can stand above or below the molecule they belong to. Positions of bridges follow the written chain, without caps; N, C: chain ends. Non-standard residues stand in square brackets, D forms with d. Residues, ends and D or L forms follow the SMILES beside them.

Key:
SSTR-2 = conditions: cited from earlier work
SSTR-5 = conditions: cited from earlier work
[1] = target: somatostatin receptors (SSTR); test: Ligand competition assay: binding of [125I]RC-160 to membrane homogenates of pediatric solid tumor samples (Scatchard / LIGAND-PC); set-up: species or system human
Description: (§1) Receptor binding affinities and concentrations of SSTRs in tumor membranes were also studied. […] Biochemical specifications and parameters crucial to characterize specific binding sites were also defined. […] Various peptides structurally related or unrelated to SST were used in these studies.
(§2) The radioiodinated derivatives of the RC-160 SST analogue were prepared by the chloramine-T method and purified by reverse phase high-performance liquid chromatography (RP-HPLC) as described previously. Somatostatin receptor-binding assays were performed as described previously with some minor modifications, using in vitro ligand competition assays based on the binding of [^125I] RC-160 as a radioligand to membrane fractions of the pediatric samples. This radioiodinated ligand has been well characterized and reported previously and has high affinity for SSTR-2 and SSTR-5 [4]. Tumor membrane homogenates were incubated as competitors with 50,000–70,000 cpm radioiodinated RC-160 and 10^−12–10^−6 M nonradioactive peptides. After incubation for 2 h, the binding reactions were stopped, and the bound ligand was separated and counted in a gamma counter. The LIGAND-PC computer curve-fitting software of Munson and Rodbard was used to determine the type of receptor binding, the dissociation constant (Kd), and the maximal binding capacity of SSTRs (Bmax). […] The final binding affinities were expressed as IC50 values. Protein concentration was determined by the method of Bradford using a Bio-Rad protein assay kit (Bio-Rad Laboratories, Inc.).

[2] = tested on: somatostatin receptors (SSTR); test: Displacement of [125I]RC-160 binding from membranes of human pediatric tumors by unlabeled peptides; conditions: for inhibition/displacement of the binding of radioiodinated RC-160: pediatric tumor membranes, competitor 10^-12-10^-6 M, concentrations as high as 1 µM; for displacement of [125I]RC-160 binding: membrane fractions of human rhabdomyosarcoma specimen, Figure 3
Description: as §1
Displacement of [^125I] RC-160 as a radioligand by the unlabeled SST analogs as competitor was determined.
as §2

SSTR-1 = conditions: cited from earlier work
SSTR-3 = conditions: cited from earlier work

Molecule: SST-14: somatostatin-14, native peptide
inhibition/displacement of the binding of radioiodinated RC-160 [2]: displaced completely

Molecule: VIP: unrelated peptide used as specificity control (Figure 3)
displacement of [125I]RC-160 binding [2]: did not displace

Molecule: insulin-like growth factor I: unrelated peptide used as specificity control
inhibition/displacement of the binding of radioiodinated RC-160 [2]: none

Molecule: octreotide
affinity to SSTR-2 (SSTR-2): high affinity; also recorded: highest affinity
affinity to SSTR-5 (SSTR-5): high affinity; also recorded: approximately similar affinity
affinity to SSTR-1 (SSTR-1): lower binding affinity
affinity to SSTR-3 (SSTR-3): approximately similar affinity

Molecule: pasireotide
affinity to SSTR-5 (SSTR-5): possesses an affinity
affinity to SSTR-1 (SSTR-1): possesses an affinity
affinity to SSTR-3 (SSTR-3): possesses an affinity

More lines, main results first:

Kd ([1]; mean of seven receptor-positive pediatric tumor samples, read-out: mean dissociation constant (Kd)): 6 nM
Kd ([1]; patient 4, Hodgkin lymphoma membranes, duplicates, read-out: SSTR Kd): 8.01 nM
Kd ([1]; patient 5, rhabdomyosarcoma membranes, duplicates, read-out: SSTR Kd): 8.12 nM
Kd ([1]; patient 6, rhabdomyosarcoma membranes, duplicates, read-out: SSTR Kd): 4.31 nM
Kd ([1]; patient 7, hamartoma membranes, duplicates, read-out: SSTR Kd): 4.02 nM
Kd ([1]; range over seven receptor-positive pediatric tumor samples, read-out: dissociation constant (Kd), range): 4.02 to 8.12 nM
Molecule: CC(C)[C@@H]1NC(=O)[C@H](CCCCN)NC(=O)[C@@H](Cc2c[nH]c3ccccc23)NC(=O)[C@H](Cc2ccc(O)cc2)NC(=O)[C@@H](NC(=O)[C@H](N)Cc2ccccc2)CSSC[C@@H](C(=O)N[C@@H](Cc2c[nH]c3ccccc23)C(N)=O)NC1=O [[125I]RC-160] (H-[dF]CY[dW]KVCW-NH2; disulfide 2-7)
affinity for SSTR-2 (SSTR-2): high affinity
affinity for SSTR-5 (SSTR-5): high affinity
Kd ([1]; patient 1, teratoma membranes, duplicates, read-out: SSTR Kd): 5.76 nM

inhibition/displacement of the binding of radioiodinated RC-160 [2]: none
Molecule: [Tyr4]bombesin

displacement of [125I]RC-160 binding [2]: did not displace
Molecule: bombesin

displacement of [125I]RC-160 binding [2]: did not displace
inhibition/displacement of the binding of radioiodinated RC-160 [2]: none
Molecule: growth hormone-releasing hormone (GHRH): unrelated peptide used as specificity control

displacement of [125I]RC-160 binding [2]: did not displace
inhibition/displacement of the binding of radioiodinated RC-160 [2]: none
Molecule: luteinizing hormone-releasing hormone (LHRH): unrelated peptide used as specificity control
